# According to patent US20180318311A1, “TRICYCLIC 2-QUINOLINONES AS ANTIBACTERIALS” (priority 2017, published 2018):
# Structures can show the parent of a compound that is named as a salt. Where two headings read alike, the source gives them in different places.
# Key:
# Type in all cases: cell-based
# [1] = system: S. pneumoniae ATCC 25922 (NB07001); experiment: MIC by broth microdilution, S. pneumoniae NB07001; details: Streptococcus pneumoniae, read-out: Antibacterial activity (MIC) NB07001
# In short: (§1)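 CLSI broth microdilution in CAMHB, inoculum ~5×10^5 CFU/mL, two-fold compound dilutions at 1% final DMSO. Plates incubated 20 h at 35°C in ambient air; MIC (μg/mL) is the lowest concentration preventing visible growth, confirmed by OD600.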
# [2] = system: E. coli ATCC 25922 (NB27001); experiment: MIC by broth microdilution, E. coli NB27001; details: Escherichia coli, ATCC25922, CAMHB, 35° C., 20 hours, read-out: Antibacterial activity (MIC) NB27001
# In short: as §1
# [3] = system: S. aureus NB01080 fluoroquinolone-resistant clinical isolate; experiment: MIC by broth microdilution, S. aureus NB01080; details: Staphylococcus aureus, CAMHB, 35° C., 20 hours, read-out: Antibacterial activity (MIC) NB01080
# In short: as §1
# [4] = system: P. aeruginosa NB52019, wild-type PAO1 strain; experiment: MIC by broth microdilution, P. aeruginosa NB52019; details: Pseudomonas aeruginosa, CAMHB, 35° C., 20 hours, read-out: Antibacterial activity (MIC) NB52019
# In short: as §1
# [5] = system: S. aureus NB01006-AVR005, gyrA (S84L), grlA (580F) and grlB (E471K); experiment: microbe, parasite or virus in culture; details: Staphylococcus aureus, 20 h, read-out: Antibacterial activity (MIC) NB01006-AVR005
# In short: as §1
# [6] = system: S. aureus ATCC 49951 (NB01006); experiment: MIC by broth microdilution, S. aureus NB01006; details: Staphylococcus aureus, ATCC49951, CAMHB, 35° C., 20 hours, read-out: Antibacterial activity (MIC) NB01006
# In short: as §1
# [7] = system: E. faecalis ATCC 29212 (NB04001); experiment: MIC by broth microdilution, E. faecalis NB04001; details: Enterococcus faecalis, ATCC29212, CAMHB, 35° C., 20 hours, read-out: Antibacterial activity (MIC) NB04001
# In short: as §1
SMILES,"MIC ([1]; ATCC25922, 20 h) [µg/mL]",MIC [2] [µg/mL],MIC [3] [µg/mL],MIC [4] [µg/mL],MIC [5] [µg/mL],MIC [6] [µg/mL],MIC [7] [µg/mL],"MIC ([1]; ATCC25922, S. pneumoniae, CAMHB supplemented with 5% lysed horse blood, 35° C., 20 hours) [µg/mL]"
"C[C@H]1COc2c(N3CC[C@@H](C4(N)CC4)C3)c(F)cc3c(CN)cc(=O)n1c23 [Example 7.9, (S)-10-((R)-3-(1-aminocyclopropyl)pyrrolidin-1-yl)-7-(aminomethyl)-9-fluoro-3-methyl-2,3-dihydro-5H-[1,4]oxazino[2,3,4-ij]quinolin-5-one]",< 1,< 1,1 to 32,1 to 32,< 1,< 1,< 1,–
"NC1([C@@H]2CCN(c3c(F)cc4cc(C(=O)O)c(=O)n5c4c3OC[C@@H]5CF)C2)CC1 [Example 4, (R)-10-((R)-3-(1-aminocyclopropyl)pyrrolidin-1-yl)-9-fluoro-3-(fluoromethyl)-5-oxo-2,3-dihydro-5H-[1,4]oxazino[2,3,4-ij]quinoline-6-carboxylic acid]",< 1,1 to 32,1 to 32,> 32,1 to 32,< 1,1 to 32,–
"C[C@H]1Cn2c(=O)c(C(=O)O)cc3cc(F)c(N4CC[C@@H](C5(N)CC5)C4)c(c32)O1 [Example 1.23, (S)-10-((R)-3-(1-aminocyclopropyl)pyrrolidin-1-yl)-9-fluoro-2-methyl-5-oxo-2,3-dihydro-5H-[1,4]oxazino[2,3,4-ij]quinoline-6-carboxylic acid]",1 to 32,1 to 32,> 32,> 32,> 32,> 32,> 32,–
"C[C@H]1COc2c(N3CCC4(CC3)CC(N)C4)c(F)cc3cc(C(=O)O)c(=O)n1c23 [Example 1.30, (S)-10-(2-amino-7-azaspiro[3.5]nonan-7-yl)-9-fluoro-3-methyl-5-oxo-2,3-dihydro-5H-[1,4]oxazino[2,3,4-ij]quinoline-6-carboxylic acid]",1 to 32,> 32,> 32,> 32,> 32,1 to 32,1 to 32,–
"C[C@H]1COc2c(N3CC[C@@H](C4(N)CC4)C3)cc(C#N)c3cc(C(=O)O)c(=O)n1c23 [Example 21.2, (S)-10-((R)-3-(1-aminocyclopropyl)pyrrolidin-1-yl)-8-cyano-3-methyl-5-oxo-2,3-dihydro-5H-[1,4]oxazino[2,3,4-ij]quinoline-6-carboxylic acid]",< 1,1 to 32,1 to 32,> 32,1 to 32,< 1,1 to 32,–
"C[C@H]1COc2c(N3CCC4NCCCC4C3)c(F)cc3cc(C(=O)O)c(=O)n1c23 (mixture of isomers) [Example 1.65, (3S)-9-fluoro-3-methyl-10-(octahydro-1,6-naphthyridin-6(2H)-yl)-5-oxo-2,3-dihydro-5H-[1,4]oxazino[2,3,4-ij]quinoline-6-carboxylic acid]",1 to 32,1 to 32,> 32,> 32,> 32,1 to 32,> 32,–
"C[C@H]1COc2c(N3CC[C@@H](C4(N)CC4)C3)c(F)c(C#N)c3cc(C(=O)O)c(=O)n1c23 [Example 21.1, (S)-10-((R)-3-(1-aminocyclopropyl)pyrrolidin-1-yl)-8-cyano-9-fluoro-3-methyl-5-oxo-2,3-dihydro-5H-[1,4]oxazino[2,3,4-ij]quinoline-6-carboxylic acid trifluoroacetate salt]",< 1,1 to 32,< 1,> 32,< 1,< 1,< 1,–
"C[C@H]1COc2c(N3CCC(O)(CN)CC3)c(F)cc3cc(C(=O)O)c(=O)n1c23 [Example 1.68, (S)-10-(4-(aminomethyl)-4-hydroxypiperidin-1-yl)-9-fluoro-3-methyl-5-oxo-2,3-dihydro-5H-[1,4]oxazino[2,3,4-ij]quinoline-6-carboxylic acid]",> 32,> 32,> 32,> 32,> 32,> 32,> 32,–
"C[C@H]1COc2c(N3CC[C@@H](C4(N)CC4)C3)c(F)c(N)c3cc(C(=O)O)c(=O)n1c23 [Example 14, (S)-8-amino-10-((R)-3-(1-aminocyclopropyl)pyrrolidin-1-yl)-9-fluoro-3-methyl-5-oxo-2,3-dihydro-5H-[1,4]oxazino[2,3,4-ij]quinoline-6-carboxylic acid hydrochloride salt]",< 1,1 to 32,1 to 32,> 32,1 to 32,< 1,< 1,–
"C[C@H]1COc2c(N3CC[C@@H](C4(N)CC4)C3)c(F)cc3cc(C#N)c(=O)n1c23.O=C(O)C(F)(F)F [Example 5, (S)-10-((R)-3-(1-aminocyclopropyl)pyrrolidin-1-yl)-9-fluoro-3-methyl-5-oxo-2,3-dihydro-5H-[1,4]oxazino[2,3,4-ij]quinoline-6-carbonitrile trifluoroacetate salt]",–,1 to 32,< 1,1 to 32,< 1,< 1,< 1,< 1
"C[C@H](N)[C@@H]1CCN(c2cc(F)c3cc(C(=O)O)c(=O)n4c3c2OC[C@@H]4C)C1 [Example 12.2, (S)-10-((R)-3-((S)-1-aminoethyl)pyrrolidin-1-yl)-8-fluoro-3-methyl-5-oxo-2,3-dihydro-5H-[1,4]oxazino[2,3,4-ij]quinoline-6-carboxylic acid]",< 1,1 to 32,1 to 32,1 to 32,1 to 32,< 1,< 1,–
"C[C@H]1COc2c(N3Cc4cccc(F)c4C3)c(F)cc3cc(C(=O)O)c(=O)n1c23 [Example 1.25, (S)-9-fluoro-10-(4-fluoroisoindolin-2-yl)-3-methyl-5-oxo-2,3-dihydro-5H-[1,4]oxazino[2,3,4-ij]quinoline-6-carboxylic acid]",1 to 32,> 32,< 1,> 32,> 32,< 1,1 to 32,–
"C[C@H]1COc2c(N3CCN4CC(F)(F)C[C@H]4C3)c(F)cc3cc(C(=O)O)c(=O)n1c23 [Example 1.72, (S)-10-((S)-7,7-difluorohexahydropyrrolo [1,2-a]pyrazin-2(1H)-yl)-9-fluoro-3-methyl-5-oxo-2,3-dihydro-5H-[1,4]oxazino[2,3,4-ij]quinoline-6-carboxylic acid]",> 32,> 32,> 32,> 32,> 32,1 to 32,> 32,–
"C[C@@H]1Cn2c(=O)c(C(=O)O)cc3cc(F)c(N4CC[C@@H](C5(N)CC5)C4)c(c32)O1 [Example 1.22, (R)-10-((R)-3-(1-aminocyclopropyl)pyrrolidin-1-yl)-9-fluoro-2-methyl-5-oxo-2,3-dihydro-5H-[1,4]oxazino[2,3,4-ij]quinoline-6-carboxylic acid]",1 to 32,> 32,1 to 32,> 32,> 32,1 to 32,1 to 32,–
"C[C@H]1COc2c(N3CCC4(CC4N)C3)c(F)c(F)c3cc(C(=O)O)c(=O)n1c23 (single isomer, unassigned) [Example 13.4]",< 1,< 1,1 to 32,1 to 32,1 to 32,< 1,< 1,–
"C[C@H]1COc2c(N3CC[C@H](O)C3)c(F)cc3cc(C(=O)O)c(=O)n1c23 [Example 1.6, (S)-9-fluoro-10-((S)-3-hydroxypyrrolidin-1-yl)-3-methyl-5-oxo-2,3-dihydro-5H-[1,4]oxazino[2,3,4-ij]quinoline-6-carboxylic acid]",1 to 32,1 to 32,1 to 32,> 32,> 32,< 1,1 to 32,–
"C[C@H]1COc2c(N3CC[C@@H]([C@@H](N)CF)C3)c(F)cc3cc(C(=O)O)c(=O)n1c23 [Example 1.56, (S)-10-((R)-3-((R)-1-amino-2-fluoroethyl)pyrrolidin-1-yl)-9-fluoro-3-methyl-5-oxo-2,3-dihydro-5H-[1,4]oxazino[2,3,4-ij]quinoline-6-carboxylic acid]",< 1,< 1,< 1,1 to 32,1 to 32,< 1,< 1,–
"C[C@H]1COc2c(N3CCC(C4(N)CCC4)C3)c(F)cc3cc(C(=O)O)c(=O)n1c23 (single isomer, unassigned) [Example 1.46]",< 1,1 to 32,< 1,> 32,1 to 32,< 1,< 1,–
